Measurements taken from the NIST ThermoML archive (doi:10.1016/j.jct.2013.08.016).

How the values were obtained:
[1] = mn = molality of the nth substance listed, in mol/kg; conditions: 101.3 kPa, Liquid; for viscosity: Capillary tube (Ostwald / Ubbelohde) method; for mass density: Pycnometric method; for speed of sound: Single path-length method
[2] = refractive index (Na D-line) (dimensionless); mn = molality of the nth substance listed, in mol/kg; conditions: 101.3 kPa, Liquid, Standard Abbe refractometry

O=C1O[C@H]([C@@H](O)CO)C([O-])=C1O.[Na+] [sodium L-ascorbate] + O
Conditions | mass density, [1] [kg/m3] | refractive index, [2] | speed of sound, [1] [m/s] | viscosity, [1] [mPa·s]
278.15 K, m1 = 0.0495 | 1005.25 | 1.3359 | 1432.4 | 1.564
278.15 K, m1 = 0.102 | 1010.89 | 1.338 | 1438.9 | 1.61
278.15 K, m1 = 0.1378 | 1014.72 | 1.3388 | 1443.6 | 1.633
278.15 K, m1 = 0.2009 | 1021.3 | 1.3411 | 1451.6 | 1.693
278.15 K, m1 = 0.2329 | 1024.63 | 1.3428 | 1456.6 | 1.727
278.15 K, m1 = 0.2951 | 1030.95 | 1.3448 | 1463.8 | 1.787
278.15 K, m1 = 0.3361 | 1035.04 | 1.3461 | 1469.1 | 1.828
278.15 K, m1 = 0.3968 | 1041.02 | 1.3485 | 1478.2 | 1.891
278.15 K, m1 = 0.4287 | 1044.29 | 1.3498 | 1480 | 1.925
278.15 K, m1 = 0.4929 | 1050.46 | 1.3519 | 1489.1 | 1.995
278.15 K, m1 = 0.5436 | 1055.28 | 1.3536 | 1494.6 | 2.052
278.15 K, m1 = 0.6275 | 1063.15 | 1.3564 | 1503.6 | 2.152
278.15 K, m1 = 0.6583 | 1065.96 | 1.3571 | 1509.1 | 2.192
278.15 K, m1 = 0.7407 | 1073.42 | 1.3602 | 1518.2 | 2.291
288.15 K, m1 = 0.0403 | 1003.38 | 1.3351 | 1470.4 | 1.167
288.15 K, m1 = 0.1263 | 1012.42 | 1.3373 | 1479.2 | 1.209
288.15 K, m1 = 0.1604 | 1015.94 | 1.3392 | 1483.6 | 1.24
288.15 K, m1 = 0.2478 | 1024.69 | 1.3423 | 1494.4 | 1.303
288.15 K, m1 = 0.301 | 1029.91 | 1.3439 | 1499.1 | 1.339
288.15 K, m1 = 0.3509 | 1034.82 | 1.346 | 1505.9 | 1.37
288.15 K, m1 = 0.4457 | 1043.86 | 1.3493 | 1518.2 | 1.45
288.15 K, m1 = 0.5156 | 1050.33 | 1.3502 | 1525.5 | 1.504
288.15 K, m1 = 0.5987 | 1057.95 | 1.3543 | 1532.7 | 1.575
288.15 K, m1 = 0.6446 | 1062.31 | 1.3558 | 1540 | 1.608
288.15 K, m1 = 0.6909 | 1066.4 | 1.3572 | 1545.5 | 1.652
288.15 K, m1 = 0.7466 | 1071.4 | 1.3592 | 1552 | 1.708
298.15 K, m1 = 0.0503 | 1002.31 | 1.3344 | 1501.9 | 0.9169
298.15 K, m1 = 0.1005 | 1007.49 | 1.3362 | 1507.2 | 0.9381
298.15 K, m1 = 0.1492 | 1012.47 | 1.3378 | 1512.6 | 0.9628
298.15 K, m1 = 0.1993 | 1017.5 | 1.3397 | 1518.1 | 0.9898
298.15 K, m1 = 0.2452 | 1022.1 | 1.3414 | 1522.5 | 1.007
298.15 K, m1 = 0.301 | 1027.58 | 1.3434 | 1527.6 | 1.04
298.15 K, m1 = 0.3456 | 1031.8 | 1.3449 | 1533.1 | 1.062
298.15 K, m1 = 0.4112 | 1038.01 | 1.347 | 1539.9 | 1.097
298.15 K, m1 = 0.4397 | 1040.84 | 1.3479 | 1542 | 1.113
298.15 K, m1 = 0.4892 | 1045.65 | 1.3495 | 1547.2 | 1.146
298.15 K, m1 = 0.5491 | 1051.09 | 1.3516 | 1554.4 | 1.183
298.15 K, m1 = 0.6035 | 1056.1 | 1.3534 | 1559.1 | 1.223
298.15 K, m1 = 0.6697 | 1062.08 | 1.3553 | 1565.3 | 1.257
298.15 K, m1 = 0.7314 | 1067.47 | 1.3571 | 1572.6 | 1.301
